Data set [1] deals with T1, CAIX-expressing human HT-29 colorectal cancer cells (Homo sapiens, UniProt Q16790).
T1 construct: CAIX-expressing human HT-29 colorectal cancer cells; host or cells: HT-29 human colorectal cancer cells
Kind of data set: FACS binding assay (IC50 determination, competition with tracer 3BP-2776 or 3BP-4149). Conditions: 4° C., 1 hour, read-out: pIC50 category (activity) (converted). The essentials:
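HT-29 cells in FACS buffer (PBS, 1% FCS) at 500.000 cells/ml were exposed to compounds competing with a labelled tracer, with biotinylated compounds detected by 1 μg/mL APC-streptavidin for 30 min on ice. APC/Cy5 median fluorescence was read by flow cytometry and IC50 derived by 4PL fit.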

Data set [2] is described as follows: Plasma stability assay, mouse plasma. Particulars: mouse plasma, 37°C, 24 h.
Data set [3] deals with T2, human carbonic anhydrase IX (hCAIX-Fc) (Homo sapiens, UniProt Q16790).
T2 construct: purchased SinoBliological (Sino Biological) 10107-H02H
Kind of data set: Surface plasmon resonance assay with hCAIX-Fc. Type of data set: binding. Particulars: 25° C.; for t1/2 category (activity): SPR dissociation half-life, hCAIX-Fc; for Kd: SPR, hCAIX-Fc captured, read-out: pKD category (activity) (converted).

Where [4] appears, read: FACS competition on HT-29 cells, Tracer ID 3BP-2776 (10 nM, biotin-labeled).
The mark [5] stands for this setting: FACS binding assay, HT-29 cells, competition with tracer 3BP-2776 (10 nM, biotin-labeled).

From patent US20250339569A1, “CARBONIC ANHYDRASE IX LIGANDS” (priority 2021, published 2025) come the findings set out here.

Read-outs that look alike come from different tables or passages of the source. Starred links: 1 amine or outer side, 2 acyl side, 3 side chain; linkers in the order of their positions; H or OH if unused. Positions of bridges follow the written chain, without caps; N, C: chain ends. Non-standard residues stand in square brackets, D forms with d. Residues, ends and D or L forms follow the SMILES beside them. *: point of attachment. NH(CH2)3NHDOTA = O=C(O)CN1CCN(CC(=O)O)CCN(CC(=O)NCCCN*)CCN(CC(=O)O)CC1; NH(1-deoxy-D-glucityl) = OC[C@@H](O)[C@@H](O)[C@H](O)[C@@H](O)CN*; DOTA = O=C(O)CN1CCN(CC(=O)O)CCN(CC(=O)*)CCN(CC(=O)O)CC1; Phe(3,4-Cl2) = N[C@@H](Cc1ccc(Cl)c(Cl)c1)C(=O)O; mXylylene = c1cc(C[*:1])cc(C[*:2])c1; Orn(Me2) = CN(C)CCC[C@H](N)C(=O)O; X2 = O=C(CN1CCC(N[*:1])CC1)[*:2]; tBuAla = CC(C)(C)C[C@H](N)C(=O)O; X1 = O=C(CN1CCN([*:1])CC1)[*:2]; hSer = N[C@@H](CCO)C(=O)O; Dap = NC[C@H](N)C(=O)O; Bn = c1ccc(C*)cc1

For the compound `CC(=O)N[C@H](C(=O)N[C@@H](Cc1ccccc1)C(=O)N[C@H]1CSCc2cccc(c2)CSC[C@@H](C(N)=O)NC(=O)[C@H](CCC(=O)NCCCNC(=O)CN2CCN(CC(=O)O)CCN(CC(=O)O)CCN(CC(=O)O)CC2)NC(=O)[C@H](Cc2c[nH]c3ccccc23)NC(=O)[C@H]([C@@H](C)O)NC(=O)[C@H](CC(C)C)NC(=O)[C@H](Cc2c[nH]c3ccccc23)NC(=O)[C@H](CC(=O)O)NC(=O)[C@H]2CCCN2C(=O)[C@H](CCC(=O)O)NC1=O)C(C)C` [3BP-3874] (Ac-VFCE[dP]DWLTWE(NH(CH2)3NHDOTA)C-NH2; linker 3-12 via mXylylene), in data set [1] (setting [4]), the IC50 was less than 10 nM. For the same compound, the “% intact compound remaining (incubation time)” value (shortened to “% intact compound remaining”) in data set [2] was more than 95%. Moreover, in data set [3], the “t1/2 category (activity)” value was “B (t1/2 between 5.1 and 15.0 minutes)”; the Kd is less than 10 nM.

As to `CC(C)C[C@@H]1NC(=O)[C@H](Cc2c[nH]c3ccccc23)NC(=O)[C@@H]2CCCCNC(=O)CC[C@H](NC1=O)C(=O)N[C@@H](Cc1c[nH]c3ccccc13)C(=O)N[C@@H](CO)C(=O)N[C@H](C(N)=O)CSCc1cccc(c1)CSC[C@H](NC(=O)[C@H](Cc1ccc(O)cc1)NC(=O)CN1CCN(CC(=O)O)CCN(CC(=O)O)CCN(CC(=O)O)CC1)C(=O)N[C@@H](CCC(=O)O)C(=O)N1CCC[C@@H]1C(=O)N2` [3BP-3934, DOTA-Tyr-[Cys(3MeBn)-Glu-pro-{Lys-Trp-Leu-Glu}-Trp-Ser-Cys]-NH2] ({DOTA}-YCE[dP]KWLEWSC-NH2; linker 2-11 via mXylylene; lactam 5-8), the IC50 in data set [1] (setting [4]) is less than 10 nM. For the same compound, in data set [2], the “% intact compound remaining” value was more than 95%. In addition, in data set [3], the “t1/2 category (activity)” value was “C (t1/2 between 2.1 and 5.0 minutes)”; the Kd is less than 10 nM.

As to `CC(C)C[C@@H]1NC(=O)[C@H](Cc2c[nH]c3ccccc23)NC(=O)[C@H](CC(=O)O)NC(=O)[C@H]2CCCN2C(=O)[C@H](CCCN(C)C)NC(=O)[C@@H](NC(=O)[C@H](Cc2ccc(O)cc2)NC(=O)[C@@H](NC(=O)CN2CCC(NC(=O)CN3CCN(CC(=O)O)CCN(CC(=O)O)CCN(CC(=O)O)CC3)CC2)C(C)C)CSCc2cccc(c2)CSC[C@@H](C(N)=O)NC(=O)[C@H](CO)NC(=O)[C@H](Cc2c[nH]c3ccccc23)NC(=O)[C@H]([C@@H](C)O)NC1=O` [3BP-4096] ({DOTA}-[X2]VYC[Orn(Me2)][dP]DWLTWSC-NH2; linker 4-13 via mXylylene), the IC50 in data set [1] (setting [5]) was less than 10 nM. Besides, the “% intact compound remaining” value in data set [2] is given as 93%. Besides, in data set [3], the “t1/2 category (activity)” value is “B (t1/2 between 5.1 and 15.0 minutes)”; the Kd was less than 10 nM.

As to `CC(C)C[C@@H]1NC(=O)[C@H](Cc2c[nH]c3ccccc23)NC(=O)[C@H](CC(=O)O)NC(=O)[C@H]2CCCN2C(=O)[C@H](CCO)NC(=O)[C@@H](NC(=O)[C@H](Cc2ccc(O)cc2)NC(=O)[C@@H](NC(=O)CN2CCC(NC(=O)CN3CCN(CC(=O)O)CCN(CC(=O)O)CCN(CC(=O)O)CC3)CC2)C(C)C)CSCc2cccc(c2)CSC[C@@H](C(N)=O)NC(=O)[C@H](CO)NC(=O)[C@H](Cc2c[nH]c3ccccc23)NC(=O)[C@H]([C@@H](C)O)NC1=O` [3BP-4101] ({DOTA}-[X2]VYC[hSer][dP]DWLTWSC-NH2; linker 4-13 via mXylylene), the IC50 in data set [1] (setting [5]) is less than 10 nM. In addition, the “% intact compound remaining” value in data set [2] amounted to 93%. In data set [3], the “t1/2 category (activity)” value was “B (t1/2 between 5.1 and 15.0 minutes)”; the Kd is less than 10 nM.

With `CC(C)C[C@@H]1NC(=O)[C@H](Cc2c[nH]c3ccccc23)NC(=O)[C@H](CC(N)=O)NC(=O)[C@H]2CCCN2C(=O)[C@H](CCC(=O)O)NC(=O)[C@@H](NC(=O)[C@H](Cc2ccc(O)cc2)NC(=O)[C@@H](NC(=O)CN2CCC(NC(=O)CN3CCN(CC(=O)O)CCN(CC(=O)O)CCN(CC(=O)O)CC3)CC2)C(C)C)CSCc2cccc(c2)CSC[C@@H](C(N)=O)NC(=O)[C@H](CO)NC(=O)[C@H](Cc2c[nH]c3ccccc23)NC(=O)[C@H]([C@@H](C)O)NC1=O` [3BP-4103] ({DOTA}-[X2]VYCE[dP]NWLTWSC-NH2; linker 4-13 via mXylylene), the IC50 in data set [1] (setting [5]) was less than 10 nM. Besides, the “% intact compound remaining” value in data set [2] was found to be 81%. Also, in data set [3], the “t1/2 category (activity)” value is listed as “A (t1/2>15.0 minutes)” and the Kd is less than 10 nM.

On to `CC(C)C[C@@H]1NC(=O)[C@H](Cc2c[nH]c3ccccc23)NC(=O)[C@H](CC(=O)O)NC(=O)[C@H]2CCCN2C(=O)[C@H](CCC(=O)O)NC(=O)[C@@H](NC(=O)[C@H](CCC(=O)NC[C@H](O)[C@@H](O)[C@H](O)[C@H](O)CO)NC(=O)[C@@H](NC(=O)CN2CCC(NC(=O)CN3CCN(CC(=O)O)CCN(CC(=O)O)CCN(CC(=O)O)CC3)CC2)C(C)C)CSCc2cccc(c2)CSC[C@@H](C(N)=O)NC(=O)[C@H](CO)NC(=O)[C@H](Cc2c[nH]c3ccccc23)NC(=O)[C@H]([C@@H](C)O)NC1=O` [3BP-4112] ({DOTA}-[X2]VE(NH(1-deoxy-D-glucityl))CE[dP]DWLTWSC-NH2; linker 4-13 via mXylylene), for which the IC50 in data set [1] (setting [5]) is less than 10 nM. The “% intact compound remaining” value in data set [2] was more than 95%. Further, in data set [3], the “t1/2 category (activity)” value was “B (t1/2 between 5.1 and 15.0 minutes)”; the Kd is less than 10 nM.

Regarding `CC(C)C[C@@H]1NC(=O)[C@H](Cc2c[nH]c3ccccc23)NC(=O)[C@H](CSCc2ccccc2)NC(=O)[C@H]2CCCN2C(=O)[C@H](CCC(=O)O)NC(=O)[C@@H](NC(=O)[C@H](Cc2ccc(O)cc2)NC(=O)[C@@H](NC(=O)CN2CCC(NC(=O)CN3CCN(CC(=O)O)CCN(CC(=O)O)CCN(CC(=O)O)CC3)CC2)C(C)C)CSCc2cccc(c2)CSC[C@@H](C(N)=O)NC(=O)[C@H](CO)NC(=O)[C@H](Cc2c[nH]c3ccccc23)NC(=O)[C@H]([C@@H](C)O)NC1=O` [3BP-4128] ({DOTA}-[X2]VYCE[dP]C(Bn)WLTWSC-NH2; linker 4-13 via mXylylene), the IC50 in data set [1] (setting [5]) was less than 10 nM. Besides, the “% intact compound remaining” value in data set [2] stood at 87%. Further, in data set [3], the “t1/2 category (activity)” value is given as “A (t1/2>15.0 minutes)” and the Kd is less than 10 nM.

Turning to `CC(C)C[C@@H]1NC(=O)[C@H](Cc2ccc(Cl)c(Cl)c2)NC(=O)[C@H](CC(=O)O)NC(=O)[C@H]2CCCN2C(=O)[C@H](CCC(=O)O)NC(=O)[C@@H](NC(=O)[C@H](Cc2ccc(O)cc2)NC(=O)[C@@H](NC(=O)CN2CCC(NC(=O)CN3CCN(CC(=O)O)CCN(CC(=O)O)CCN(CC(=O)O)CC3)CC2)C(C)C)CSCc2cccc(c2)CSC[C@@H](C(N)=O)NC(=O)[C@H](CO)NC(=O)[C@H](Cc2c[nH]c3ccccc23)NC(=O)[C@H]([C@@H](C)O)NC1=O` [3BP-4133] ({DOTA}-[X2]VYCE[dP]D[Phe(3,4-Cl2)]LTWSC-NH2; linker 4-13 via mXylylene), in data set [1] (setting [5]), the IC50 was less than 10 nM. In data set [2], the “% intact compound remaining” value is more than 95%. Also, in data set [3], the “t1/2 category (activity)” value is “B (t1/2 between 5.1 and 15.0 minutes)”; the Kd is less than 10 nM.

As for `CC(C)[C@H](NC(=O)CN1CCC(NC(=O)CN2CCN(CC(=O)O)CCN(CC(=O)O)CCN(CC(=O)O)CC2)CC1)C(=O)N[C@@H](Cc1ccc(O)cc1)C(=O)N[C@H]1CSCc2cccc(c2)CSC[C@@H](C(N)=O)NC(=O)[C@H](CO)NC(=O)[C@H](Cc2c[nH]c3ccccc23)NC(=O)[C@H]([C@@H](C)O)NC(=O)[C@H](CC(C)(C)C)NC(=O)[C@H](Cc2c[nH]c3ccccc23)NC(=O)[C@H](CC(=O)O)NC(=O)[C@H]2CCCN2C(=O)[C@H](CCC(=O)O)NC1=O` [3BP-4142] ({DOTA}-[X2]VYCE[dP]DW[tBuAla]TWSC-NH2; linker 4-13 via mXylylene), in data set [1] (setting [5]), the IC50 was less than 10 nM. In addition, in data set [2], the “% intact compound remaining” value worked out at 91%. In addition, in data set [3], the “t1/2 category (activity)” value was “A (t1/2>15.0 minutes)” and the Kd is less than 10 nM.

As for `CC(C)C[C@@H]1NC(=O)[C@H](Cc2c[nH]c3ccccc23)NC(=O)[C@H](CC(=O)O)NC(=O)[C@H]2CCCN2C(=O)[C@H](CCC(=O)O)NC(=O)[C@@H]2CSCc3cccc(c3)CSC[C@@H](C(N)=O)NC(=O)[C@H](CNC(=O)C[C@H](NC(=O)CN3CCN(CC(=O)O)CCN(CC(=O)O)CCN(CC(=O)O)CC3)C(=O)N2)NC(=O)[C@H](Cc2c[nH]c3ccccc23)NC(=O)[C@H]([C@@H](C)O)NC1=O` [3BP-4253] ({DOTA}-DCE[dP]DWLTW[Dap]C-NH2; lactam 1-10; linker 2-11 via mXylylene), the IC50 in data set [1] (setting [5]) was less than 10 nM. Also, the “% intact compound remaining” value in data set [2] is reported as more than 95%. In data set [3], the “t1/2 category (activity)” value is “B (t1/2 between 5.1 and 15.0 minutes)”; the Kd is less than 10 nM.

With `CC(C)C[C@@H]1NC(=O)[C@H](Cc2c[nH]c3ccccc23)NC(=O)[C@H](CC(=O)O)NC(=O)[C@H]2CCCN2C(=O)[C@H](CCC(=O)O)NC(=O)[C@@H]2CSCc3cccc(c3)CSC[C@@H](C(N)=O)NC(=O)[C@H](CNC(=O)C[C@H](NC(=O)CN3CCN(C(=O)CN4CCN(CC(=O)O)CCN(CC(=O)O)CCN(CC(=O)O)CC4)CC3)C(=O)N2)NC(=O)[C@H](Cc2c[nH]c3ccccc23)NC(=O)[C@H]([C@@H](C)O)NC1=O` [3BP-4255] ({DOTA}-[X1]DCE[dP]DWLTW[Dap]C-NH2; lactam 2-11; linker 3-12 via mXylylene), in data set [1] (setting [5]), the IC50 was less than 10 nM. Also, the “% intact compound remaining” value in data set [2] stood at 81%. In data set [3], the “t1/2 category (activity)” value was “D (t1/2≤2.0 minutes)” and the Kd was less than 10 nM.
